From ChEMBL document CHEMBL2321810, “QSAR investigation of NaV1.7 active compounds using the SVM/Signature approach and the Bioclipse Modeling platform” (Bioorg Med Chem Lett, 2013)

Molecular target: Sodium channel protein type 9 subunit alpha (Homo sapiens, UniProt Q15858)
Experiment: cell-based

Sodium channel protein type 9 subunit alpha, sequence (Q15858 whole entry): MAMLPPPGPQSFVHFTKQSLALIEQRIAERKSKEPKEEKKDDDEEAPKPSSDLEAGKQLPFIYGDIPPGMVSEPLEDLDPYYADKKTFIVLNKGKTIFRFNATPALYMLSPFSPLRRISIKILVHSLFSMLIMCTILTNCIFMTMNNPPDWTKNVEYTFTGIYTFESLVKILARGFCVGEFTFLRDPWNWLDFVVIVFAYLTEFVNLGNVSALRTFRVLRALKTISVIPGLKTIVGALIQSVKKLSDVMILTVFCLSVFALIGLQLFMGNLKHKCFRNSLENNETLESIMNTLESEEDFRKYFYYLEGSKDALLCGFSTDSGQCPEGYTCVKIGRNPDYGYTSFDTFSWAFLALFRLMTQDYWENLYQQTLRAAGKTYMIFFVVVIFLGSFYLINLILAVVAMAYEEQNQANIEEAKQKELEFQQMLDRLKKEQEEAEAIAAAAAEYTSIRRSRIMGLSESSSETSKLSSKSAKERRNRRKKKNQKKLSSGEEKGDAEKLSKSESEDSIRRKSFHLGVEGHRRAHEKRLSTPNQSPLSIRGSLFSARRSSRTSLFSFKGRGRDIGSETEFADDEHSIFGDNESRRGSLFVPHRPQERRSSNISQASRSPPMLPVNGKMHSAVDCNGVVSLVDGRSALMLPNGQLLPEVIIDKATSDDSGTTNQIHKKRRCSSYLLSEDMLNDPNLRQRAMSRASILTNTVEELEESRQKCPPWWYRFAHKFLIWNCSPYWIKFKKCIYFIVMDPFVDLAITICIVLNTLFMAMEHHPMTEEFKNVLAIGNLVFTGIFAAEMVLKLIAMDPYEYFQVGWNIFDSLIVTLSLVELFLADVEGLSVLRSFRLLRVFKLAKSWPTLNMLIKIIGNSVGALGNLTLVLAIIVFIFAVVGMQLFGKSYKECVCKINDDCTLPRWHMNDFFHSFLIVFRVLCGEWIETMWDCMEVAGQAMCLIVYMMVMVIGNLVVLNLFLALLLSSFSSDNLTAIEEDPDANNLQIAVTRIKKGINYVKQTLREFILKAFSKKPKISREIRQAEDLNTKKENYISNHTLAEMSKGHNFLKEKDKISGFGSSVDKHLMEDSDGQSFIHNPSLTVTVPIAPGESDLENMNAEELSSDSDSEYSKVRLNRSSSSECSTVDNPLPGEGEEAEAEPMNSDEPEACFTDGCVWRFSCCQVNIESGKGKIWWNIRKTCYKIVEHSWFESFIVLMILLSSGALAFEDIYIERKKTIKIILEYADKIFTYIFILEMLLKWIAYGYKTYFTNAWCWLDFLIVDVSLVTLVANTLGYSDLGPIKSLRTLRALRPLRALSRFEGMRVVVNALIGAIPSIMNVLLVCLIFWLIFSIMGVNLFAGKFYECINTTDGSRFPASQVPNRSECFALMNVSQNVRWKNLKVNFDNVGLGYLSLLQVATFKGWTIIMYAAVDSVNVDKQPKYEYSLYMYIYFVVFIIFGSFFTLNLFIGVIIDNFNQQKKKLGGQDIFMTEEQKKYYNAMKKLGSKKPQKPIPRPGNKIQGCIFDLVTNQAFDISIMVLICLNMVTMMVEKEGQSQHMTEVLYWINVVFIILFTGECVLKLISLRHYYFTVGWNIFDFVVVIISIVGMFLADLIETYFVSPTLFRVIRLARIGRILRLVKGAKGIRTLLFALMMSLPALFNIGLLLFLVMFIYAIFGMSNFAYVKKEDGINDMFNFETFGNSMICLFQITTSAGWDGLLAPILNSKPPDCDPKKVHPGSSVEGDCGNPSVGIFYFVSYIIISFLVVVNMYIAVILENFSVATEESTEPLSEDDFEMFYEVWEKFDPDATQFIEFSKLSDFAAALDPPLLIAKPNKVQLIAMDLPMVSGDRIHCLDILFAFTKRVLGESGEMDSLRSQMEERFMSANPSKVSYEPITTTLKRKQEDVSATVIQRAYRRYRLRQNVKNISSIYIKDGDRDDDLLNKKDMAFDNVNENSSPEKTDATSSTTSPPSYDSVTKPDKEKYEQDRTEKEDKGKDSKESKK

| IC50 | Compound |
| --- | --- |
| 3 µM | COc1cc(Oc2ccc(S(=O)(=O)Nc3ccc(F)cn3)cc2C#N)ccc1-n1cccn1 |
| 0.93 µM | N#Cc1cc(S(=O)(=O)Nc2nccs2)ccc1Oc1cccc(-n2ccc(C(F)(F)F)n2)c1 |
| 1 µM | N#Cc1cc(S(=O)(=O)Nc2nncs2)ccc1Oc1ccc(Cl)cc1-c1cc(N2CCOCC2)ncn1 |
| 1 µM | CCn1nc(C(F)(F)F)cc1-c1cccc(Oc2ccc(S(=O)(=O)Nc3ccc(F)cn3)cc2C#N)c1 |
| 1 µM | N#Cc1cc(S(=O)(=O)Nc2nccs2)ccc1Oc1ccc(-c2cc(C3CC3)n[nH]2)c(Cl)c1 |
| 1 µM | N#Cc1cc(S(=O)(=O)Nc2nccs2)ccc1Oc1ccc(-n2cc(C(N)=O)cn2)cc1 |
| 1 µM | N#Cc1cc(S(=O)(=O)Nc2cscn2)ccc1Oc1ccc(Cl)cc1-c1ccn(C(F)(F)F)n1 |
| 1 µM | Cc1cc(C)n(-c2ccc(Oc3ccc(S(=O)(=O)Nc4nccs4)c(F)c3)cc2)n1 |
| 1 µM | N#Cc1cc(SNc2ncns2)ccc1Oc1ccc(F)cc1C1CC1 |
| 1 µM | N#Cc1cc(S(=O)(=O)Nc2ncns2)ccc1Oc1ccc(-n2cc(COC(=O)C(F)(F)F)cn2)cc1 |
| 1 µM | N#Cc1cc(S(=O)(=O)Nc2ncns2)ccc1Oc1ccc(-n2cc(CO)cn2)cc1 |
| 1 µM | N#Cc1cc(S(=O)(=O)Nc2nccs2)ccc1Oc1ccc(-c2cc(C(F)(F)F)n(CCCF)n2)cc1F |
| 1 µM | CC1CN(c2ccc(Oc3ccc(S(=O)(=O)Nc4nccs4)cc3C#N)cc2)C(=O)N1 (stereo not drawn) |
| 1 µM | CC(C)C1CN(c2ccc(Oc3ccc(S(=O)(=O)Nc4nccs4)cc3C#N)cc2)C(=O)N1 (stereo not drawn) |
| 1 µM | COC(=O)c1cc(Oc2ccc(S(=O)(=O)Nc3nccs3)cc2C#N)ccc1-n1cc(Cl)cn1 |
| 1 µM | O=S(=O)(Nc1cscn1)c1cc(Cl)c(Oc2cc(C(F)(F)F)ccc2-c2cncnc2)cc1F |
| 1 µM | Cn1cnnc1-c1cc(Cl)ccc1Oc1ccc(S(=O)(=O)Nc2nccs2)cc1F |
| 0.74 µM | N#Cc1cc(S(=O)(=O)Nc2ncns2)cc(F)c1Oc1ccc(F)cc1-c1cn[nH]c1 |
| 0.77 µM | CCn1nc(C(F)(F)F)cc1-c1ccc(Oc2ccc(S(=O)(=O)Nc3nncs3)cc2C#N)cc1 |
| 0.82 µM | CCn1nc(C(F)(F)F)cc1-c1ccc(Oc2ccc(S(=O)(=O)Nc3ncc(F)s3)cc2F)cc1 |
| 0.84 µM | Cc1cccc(-c2ccc(OC(C)C)cc2)c1Oc1ccc(S(=O)(=O)Nc2ncns2)cc1C#N |
| 0.58 µM | N#Cc1cc(S(=O)(=O)Nc2nccs2)ccc1Oc1ccc(Cl)cc1-c1ccccn1 |
| 0.67 µM | N#Cc1cc(S(=O)(=O)Nc2ncns2)ccc1Oc1ccccc1-c1cccc(F)c1 |
| 0.74 µM | CN(C)C(=O)c1cccc(-c2ccccc2)c1Oc1ccc(S(=O)(=O)c2ncns2)cc1C#N |

| IC50 | Compound |
| --- | --- |
| 0.43 µM | N#Cc1cc(S(=O)(=O)Nc2nccs2)ccc1Oc1ccc(Cl)cc1-c1c[nH]nc1C(F)(F)F |
| 0.53 µM | N#Cc1cc(S(=O)(=O)Nc2ncc(F)s2)ccc1Oc1ccccc1-c1ccccc1 |
| 0.35 µM | CC(C)(C)OC(=O)N1CCC(c2cc(Cl)ccc2Oc2ccc(S(=O)(=O)Nc3ncns3)cc2C#N)CC1 |
| 0.37 µM | N#Cc1cc(S(=O)(=O)Nc2nccs2)ccc1Oc1ccc(-c2cc(C(F)(F)F)ccn2)cc1 |
| 0.3 µM | Cc1nn(C(C)(C)C)cc1-c1cc(Cl)ccc1Oc1cc(F)c(S(=O)(=O)Nc2nncs2)cc1Cl |
| 0.3 µM | N#Cc1cc(S(=O)(=O)Nc2ncns2)ccc1Oc1cc(C(F)(F)F)nn1Cc1ccccc1 |
| 0.3 µM | CCn1nc(C)c(-c2ccccc2Oc2ccc(S(=O)(=O)Nc3ncns3)cc2C#N)c1C |
| 0.3 µM | CCOCn1nncc1-c1cc(Cl)ccc1Oc1ccc(S(=O)(=O)Nc2nccs2)cc1C#N |
| 0.3 µM | Cn1cnc(-c2cc(Cl)ccc2Oc2ccc(S(=O)(=O)Nc3nccs3)cc2C#N)n1 |
| 0.3 µM | O=S(=O)(Nc1cscn1)c1cc(Cl)c(Oc2ccc(C(F)(F)F)cc2-c2cncc(CO)c2)cc1F |
| 0.3 µM | Cn1ncnc1-c1cc(Cl)ccc1Oc1ccc(S(=O)(=O)Nc2ncc(F)s2)cc1C#N |
| 0.22 µM | Cn1nccc1-c1cc(C(F)(F)F)ncc1Oc1ccc(S(=O)(=O)Nc2ncc(Cl)s2)cc1C#N |
| 0.23 µM | N#Cc1cc(S(=O)(=O)Nc2nccs2)ccc1Oc1ccc(F)cc1-c1ccc(F)nc1 |
| 0.26 µM | O=S(=O)(Nc1cscn1)c1cc(Cl)c(Oc2cc(C(F)(F)F)ccc2-c2cn[nH]c2)cc1F |
| 0.11 µM | N#Cc1cc(S(=O)(=O)Nc2ncns2)ccc1Oc1ccc(C(F)(F)F)cc1C1=CN(O)CC=C1 |
| 0.09 µM | CCn1nccc1-c1cc(F)ccc1Oc1ccc(S(=O)(=O)Nc2nccs2)cc1C#N |
| 0.097 µM | N#Cc1cc(S(=O)(=O)Nc2ncc(Cl)s2)ccc1Oc1ccc(Cl)cc1-c1ccnc(N)c1 |
| 0.1 µM | N#Cc1cc(S(=O)(=O)Nc2nncs2)ccc1Oc1ccc(OC(F)(F)F)cc1-c1ccnnc1 |
| 0.05 µM | O=S(=O)(Nc1nncs1)c1ccc(Oc2ccc(Cl)cc2-c2ccn[nH]2)c(Cl)c1 |
| 0.056 µM | CC(C)(C)OC(=O)n1cc(-c2cc(Cl)ccc2Oc2cc(F)c(S(=O)(=O)Nc3nccs3)cc2F)cn1 |
| 0.025 µM | CC(C)(C)OC(=O)n1cc(-c2cc(Cl)ccc2Oc2cc(F)c(S(=O)(=O)Nc3ncc(F)s3)cc2F)cn1 |
| 0.019 µM | Nc1cc(-c2cc(Cl)ccc2Oc2cc(F)c(S(=O)(=O)Nc3cscn3)cc2F)ccn1 |
| 0.021 µM | NC1=NCN=C1c1cc(Cl)ccc1Oc1cc(F)c(S(=O)(=O)Nc2ccncn2)cc1Cl |
| 0.022 µM | CCN1CC(n2nccc2-c2cc(C(F)(F)F)ccc2Oc2ccc(S(=O)(=O)Nc3cscn3)cc2C#N)C1 |

| IC50 | Compound |
| --- | --- |
| 0.012 µM | N#Cc1cc(S(=O)(=O)Nc2ncns2)ccc1Oc1ccc(Cl)cc1-c1ccnn1C1CCC1 |
| 0.017 µM | N#Cc1cc(S(=O)(=O)Nc2ncns2)ccc1Oc1ccc(Cl)cc1-c1ccnn1C1CC1 |
| 0.01 µM | O=S(=O)(Nc1ncc(Cl)s1)c1cc(Cl)c(Oc2ccc(Cl)cc2C2CNC2)cc1F |
| 0.012 µM | N#Cc1cc(S(=O)(=O)Nc2ncns2)ccc1Oc1ccc(C(F)(F)F)cc1-c1cccnc1 |
| 3 µM | N#Cc1cc(S(=O)(=O)Nc2ccc(F)cn2)ccc1Oc1ccc(-c2cocn2)cc1 |
| 2.7 µM | COc1cc(-c2ccc(Oc3ccc(S(=O)(=O)Nc4nccs4)cc3)c(F)c2)n(C)n1 |
| 3 µM | N#Cc1cc(S(=O)(=O)Nc2ccc(F)cn2)ccc1Oc1ccccc1C1CCCCO1 (stereo not drawn) |
| 3 µM | N#Cc1cc(S(=O)(=O)Nc2ccccc2C(F)(F)F)ccc1Oc1ccccc1-c1ccccc1 |
| 3 µM | CC(C)Oc1cc(-c2cc(F)ccc2Oc2ccc(S(=O)(=O)Nc3cscn3)cc2C#N)n(C)n1 |
| 3 µM | Cc1ccc(NS(=O)(=O)c2ccc(Oc3ccccc3-c3ccccc3)c(C#N)c2)nc1 |
| 3 µM | CCc1nnc(C)n1-c1ccc(Oc2ccc(S(=O)(=O)Nc3ccc(F)cn3)cc2C#N)cc1 |
| 3 µM | N#Cc1cc(S(=O)(=O)Nc2ccc(F)cn2)ccc1Oc1ccc(-n2ccnc2)cc1 |
| 3 µM | Cc1nc(-c2cccc(Oc3ccc(S(=O)(=O)Nc4ccc(F)cn4)cc3C#N)c2)no1 |
| 3 µM | Cc1nnc(-c2ccc(Oc3ccc(S(=O)(=O)Nc4ccc(F)cn4)cc3C#N)cc2)o1 |
| 1.5 µM | Cn1nccc1-c1cc(Cl)ccc1Oc1ccc(S(=O)(=O)Nc2ccon2)cc1C#N |
| 1 µM | N#Cc1cc(S(=O)(=O)Nc2ncns2)ccc1Oc1ccc(-c2nc(CO)co2)cc1 |
| 1 µM | N#Cc1cc(S(=O)(=O)Nc2nccs2)ccc1Oc1ccc(-n2cc(F)cn2)cc1 |
| 1.1 µM | Cc1cc(-c2ccnn2C)ccc1Oc1ccc(S(=O)(=O)Nc2ncc(F)s2)cc1C#N |
| 1 µM | CC(C)Oc1cc(-c2cc(F)ccc2Oc2ccc(S(=O)(=O)Nc3nccs3)cc2C#N)n(C)n1 |
| 1 µM | CCn1nc(-c2ccc(Oc3ccc(S(=O)(=O)Nc4nccs4)cc3C#N)c(F)c2)cc1C(F)(F)F |
| 1 µM | N#Cc1cc(S(=O)(=O)Nc2nccs2)ccc1Oc1cnn(-c2ccc(Cl)cc2)c1 |
| 1 µM | N#Cc1cc(S(=O)(=O)Nc2nccs2)ccc1Oc1cnn(-c2ccc(Cl)cc2Cl)c1 |
| 1 µM | CCn1nc(C(F)(F)F)cc1-c1ccc(Oc2ccc(S(=O)(=O)Nc3ncccn3)cc2C#N)cc1 |
| 1 µM | Cn1ncnc1-c1cc(Cl)ccc1Oc1ccc(S(=O)(=O)Nc2ncc(F)s2)cc1F |

| IC50 | Compound |
| --- | --- |
| 1 µM | CN(C)C(=O)c1cnn(-c2ccc(Oc3ccc(S(=O)(=O)Nc4nccs4)cc3C#N)cc2)c1 |
| 1 µM | COCc1cnn(-c2ccc(Oc3ccc(S(=O)(=O)Nc4nccs4)cc3C#N)cc2)c1 |
| 1 µM | CN(C)Cc1cnn(-c2ccc(Oc3ccc(S(=O)(=O)Nc4nccs4)cc3C#N)cc2)c1 |
| 1 µM | CC(C)(C)NC(=O)c1cnn(-c2ccc(Oc3ccc(S(=O)(=O)Nc4nccs4)cc3C#N)cc2)c1 |
| 1 µM | N#Cc1cc(S(=O)(=O)Nc2cscn2)ccc1Oc1ccc(Cl)cc1-n1cnc(C(F)(F)F)c1 |
| 1 µM | N#Cc1cc(S(=O)(=O)Nc2cscn2)ccc1Oc1ccc(F)cc1-c1cnn(CC(F)(F)F)c1 |
| 1 µM | N#Cc1ccnc(NS(=O)(=O)c2ccc(Oc3ccccc3-c3ccccc3)c(C#N)c2)c1 |
| 1 µM | Cn1nccc1-c1cccc(Oc2ccc(S(=O)(=O)Nc3nccs3)cc2C#N)c1 |
| 1 µM | COc1cccc(-c2ccc(Oc3ccc(S(=O)(=O)Nc4nccs4)cc3C#N)cc2)n1 |
| 1 µM | N#Cc1cc(S(=O)(=O)Nc2nccs2)ccc1Oc1ccc(-c2nccc(C(F)(F)F)n2)cc1 |
| 1 µM | N#Cc1cc(S(=O)(=O)Nc2nccs2)ccc1Oc1ccc(-c2cn(CC(F)(F)F)nc2N)cc1 |
| 1 µM | Cn1cc(-c2ccc(Oc3ccc(S(=O)(=O)Nc4nccs4)cc3C#N)cc2)c(N)n1 |
| 1 µM | N#Cc1cc(S(=O)(=O)Nc2nccs2)ccc1Oc1ccc(N2CCNC2=O)cc1 |
| 1 µM | CN1CCN(c2ccc(Oc3ccc(SNc4nccs4)cc3C#N)cc2)C1=O |
| 1 µM | N#Cc1cc(S(=O)(=O)Nc2nccs2)ccc1Oc1ccc(N2CCCC2=O)cc1 |
| 1 µM | N#Cc1cc(S(=O)(=O)Nc2nccs2)ccc1Oc1ccc(-n2cccn2)cc1C(F)(F)F |
| 1 µM | N#Cc1cc(S(=O)(=O)Nc2nccs2)ccc1Oc1ccc(-n2cc(Cl)cn2)c(C(=O)O)c1 |
| 1 µM | CC(C)(C)n1ccc(-c2cc(F)ccc2Oc2cc(F)c(S(=O)(=O)Nc3cscn3)cc2Cl)n1 |
| 1 µM | Nc1nccc(-c2cc(F)ccc2Oc2cc(F)c(S(=O)(=O)Nc3ncc(Cl)s3)cc2F)n1 |
| 1 µM | Cc1scnc1NS(=O)(=O)c1cc(Cl)c(Oc2ccc(F)cc2-c2ccnn2C)cc1F |
| 1 µM | Cn1nccc1-c1ccc(Oc2ccc(S(=O)(=O)Nc3nccs3)cc2C#N)cn1 |
